Assay results published in patent publication US10864212B2, “Compositions and methods for treating retinal degradation” (University of Kentucky Research Foundation, priority 2013, dated 2020).
Entries after “also recorded” stand apart in the source; their conditions may differ.

How the values were obtained:
rat P2X7 receptor = target: T1, rat P2X7 receptor (Rattus norvegicus, UniProt Q64663); experiment: Patch clamp analysis of P2X7 cation channel function, HEK293 stable cell line expressing rat P2X7 receptor; format: cell-based
T1 construct: expressed in transfected cells
T1 sequence (Q64663 1-595): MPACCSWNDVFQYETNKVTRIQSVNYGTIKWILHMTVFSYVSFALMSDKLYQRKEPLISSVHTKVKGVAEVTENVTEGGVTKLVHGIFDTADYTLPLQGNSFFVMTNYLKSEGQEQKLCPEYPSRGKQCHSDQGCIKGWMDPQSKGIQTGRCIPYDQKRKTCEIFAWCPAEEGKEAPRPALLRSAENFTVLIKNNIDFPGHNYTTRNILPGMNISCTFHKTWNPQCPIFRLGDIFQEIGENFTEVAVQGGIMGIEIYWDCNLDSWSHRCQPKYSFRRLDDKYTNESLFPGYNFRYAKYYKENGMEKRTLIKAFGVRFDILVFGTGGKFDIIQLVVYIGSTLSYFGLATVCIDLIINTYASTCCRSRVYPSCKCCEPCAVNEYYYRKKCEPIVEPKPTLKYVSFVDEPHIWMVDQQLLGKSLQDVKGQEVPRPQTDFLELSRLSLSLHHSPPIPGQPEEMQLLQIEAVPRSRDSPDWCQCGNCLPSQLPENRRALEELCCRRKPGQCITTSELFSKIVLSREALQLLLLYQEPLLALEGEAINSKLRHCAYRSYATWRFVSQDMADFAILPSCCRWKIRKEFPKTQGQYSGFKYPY

NLRP3 mRNA = experiment: NLRP3 priming (mRNA) induced by Alu RNA in primary human RPE cells; format: cell-based; conditions: Alu RNA transfection, 16 hours, d4T 100 uM, FIG. 13
Protocol: Indeed, as provided in the bar graph of FIG. 13, Alu RNA transfection increases NLRP3 mRNA levels in primary human RPE cells at 16 hours, an event termed “priming” (Y-axis) compared to mock (transfection reagent alone).

RPE degeneration [1] = experiment: RPE degeneration in mice after sub-retinal injection of a plasmid expressing Alu RNA, systemic drug administration; format: in vivo, mouse; conditions: daily oral administration of d4T, FIG. 36
Source text: FIG. 24, top row, provides flat mounts stained for zonula occludens-1 (ZO-1; red), bottom row. Degeneration is outlined if FIG. 24 by blue arrowheads. Representative images of n=4 are shown.
FIG. 36 and FIG. 37 include fundus photographs: top row; flat mounts stained for zonula occludens-1 (ZO-1; red), bottom row. Degeneration is outlined by blue arrowheads. Scale bars, 50 μm.

mtDNA = mtDNA levels in primary mouse RPE cells by real-time quantitative PCR; format: cell-based
Source text: The present disclosure further provides the results of additional experiments in FIG. 21-FIG. 23.

IL-18 = experiment: LPS/ATP-induced IL-18 maturation in mouse bone marrow-derived macrophages (Western blot); format: cell-based; conditions: supernatants, 100 uM, FIG. 9
Source text: To produce FIG. 9, cell culture supernatants were collected after (i) no treatment, (ii) LPS treatment, or (iii) LPS/ATP treatment of mouse bone marrow-derived macrophages and run on Western blotting probing with antibodies for Caspase-1 and IL-18.

Caspase-1 = experiment: LPS/nigericin-induced Caspase-1 activation in mouse bone marrow-derived macrophages (Western blot); format: cell-based; conditions: d4T 100, 250 uM, FIG. 10
Source text: (§1) To produce FIG. 10, cell culture supernatants were collected after (i) no treatment, (ii) LPS treatment, or (iii) LPS/nigericin treatment of mouse bone marrow-derived macrophages and run on Western blotting probing with antibodies for IL-1 beta and Caspase-1.
(§2) Cell culture supernatants were collected after (i) no treatment, (ii) LPS treatment, or (iii) LPS/nigericin treatment of mouse bone marrow-derived macrophages, and run on Western blotting probing with antibodies for IL-1 beta and Caspase-1.

IL-1 beta [2] = experiment: MSU-induced IL-1 beta secretion from PMA-differentiated THP-1 monocytes (ELISA); format: cell-based, human; conditions: co-administration at 25-1000 uM, FIG. 11, 12
Source text: Human THP-1 monocytes were differentiated into macrophages with PMA.
To illustrate this, human THP-1 monocytes were differentiated into macrophages with PMA. Treatment with MSU increased IL-1 beta secretion compared to non-treated cells.

[3] = system: extracellular potassium levels; experiment: Extracellular potassium levels after Alu RNA transfection of primary human RPE cells (pyruvate kinase assay); format: cell-based; conditions: primary human RPE cells treated with Alu RNA for 6 hours; FIG. 18
Protocol: Potassium levels were determined in cell culture supernatants spectrophotometrically using a potassium-dependent pyruvate kinase assay.
For FIG. 18, potassium levels were determined in cell culture supernatants spectrophotometrically using a potassium-dependent pyruvate kinase assay.

Alu RNA = experiment: Northern blot of Alu RNA levels in primary human RPE cells; format: cell-based
Source text: FIG. 4 provides another example of the results of Northern blotting using an Alu-specific probe.
FIG. 45 is a Northern blot of biotin-UTP-labeled Alu RNA-transfected primary human RPE cells.
As presented in FIG. 3, primary human RPE cells treated with antisense oligonucleotides targeting DICER1 (Dcr as) (lane 3 (third lane from left)) show increased Alu RNA levels in the nuclear compartment compared to control antisense oligonucleotides (Ctr as) (lane 1 (leftmost)), monitored by Northern blotting using an Alu-specific probe.
For example, primary human RPE cells may be transfected with Alu RNA, with or without d4T. […] U6 (bottom row) is shown as loading control for nuclear fraction in FIG. 4.
And FIG. 45 presents a Northern blot of biotin-UTP-labeled Alu RNA-transfected primary human RPE cells.

IL-1 beta [4] = experiment: LPS/nigericin-induced IL-1 beta maturation in mouse bone marrow-derived macrophages (Western blot); format: cell-based; conditions: d4T 100, 250 uM, FIG. 10
Source text: as §1, §2

RPE degeneration [5] = experiment: Alu RNA-induced RPE degeneration in wild type mice, d4T co-delivered to the vitreous humor; format: in vivo, mouse; conditions: sub-retinal Alu RNA, increasing amounts, one week after delivery, FIG. 1
Source text: Arrows denote depigmented regions of RPE cell death, which resolve at highest dose of d4T.

human P2X7 receptor = target: T2, human P2X7 receptor (Homo sapiens, UniProt Q99572); experiment: Patch clamp analysis of P2X7 cation channel function, HEK293 stable cell line expressing human P2X7 receptor; format: cell-based
T2 construct: expressed in transfected cells
T2 sequence (Q99572 1-595): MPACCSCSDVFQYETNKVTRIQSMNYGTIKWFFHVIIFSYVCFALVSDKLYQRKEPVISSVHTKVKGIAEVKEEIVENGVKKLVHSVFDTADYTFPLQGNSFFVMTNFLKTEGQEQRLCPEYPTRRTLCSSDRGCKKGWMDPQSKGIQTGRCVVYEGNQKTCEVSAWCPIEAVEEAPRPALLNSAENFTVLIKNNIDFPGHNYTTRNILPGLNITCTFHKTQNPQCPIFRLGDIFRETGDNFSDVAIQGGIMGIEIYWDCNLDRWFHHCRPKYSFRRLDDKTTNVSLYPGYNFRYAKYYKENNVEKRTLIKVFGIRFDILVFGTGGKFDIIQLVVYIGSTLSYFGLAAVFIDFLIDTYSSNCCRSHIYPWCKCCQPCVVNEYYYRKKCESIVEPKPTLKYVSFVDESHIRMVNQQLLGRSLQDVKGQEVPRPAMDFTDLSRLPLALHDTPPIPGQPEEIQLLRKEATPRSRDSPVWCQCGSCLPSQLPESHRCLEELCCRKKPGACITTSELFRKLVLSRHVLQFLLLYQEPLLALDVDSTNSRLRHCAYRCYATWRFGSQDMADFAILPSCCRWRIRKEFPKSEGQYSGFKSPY

## Cc1cn([C@H]2C=C[C@@H](CO)O2)c(=O)[nH]c1=O [d4T, 2′3′ dideoxythymidine]
Rat P2X7 receptor
  P2X7 cation channel function (patch clamp): did not significantly modulate P2X7 cation channel function
NLRP3 mRNA
  NLRP3 mRNA levels (priming), normalized to 18S RNA: blunted
RPE degeneration [1]
  RPE degeneration caused by pAlu: blocked RPE degeneration; also recorded: prevented
mtDNA
  mtDNA levels (normalized to chromosomal DNA exon-intron junction sequence): reduces mtDNA levels
IL-18
  IL-18 maturation induced by LPS/ATP: inhibit
Caspase-1
  Caspase-1 activation (active p20 band) induced by nigericin: inhibits
IL-1 beta [2]
  IL-1 beta secretion induced by MSU: does not prevent P2X7-independent interleukin 1-beta secretion; also recorded: did not significantly affect IL-1beta secretion
[3]
  Extracellular potassium levels after Alu RNA transfection: reduces extracellular potassium levels
Alu RNA; biotin-UTP-labeled Alu RNA-transfected primary human RPE cells, FIG. 45
  Alu RNA levels (normalized to u6 RNA): without reducing Alu RNA levels; also recorded: did not reduce Alu RNA levels
Alu RNA; human RPE cells transfected with Alu RNA, 1, 4, or 24 hours after transfection, FIG. 4
  Alu RNA levels in nuclear fraction: does not change Alu RNA levels
Alu RNA; primary human RPE cells treated with antisense oligonucleotides targeting DICER1, FIG. 3
  Alu RNA levels in nuclear compartment: does not reduce Alu RNA levels
IL-1 beta [4]
  IL-1 beta maturation (18 and 22 kDa forms) induced by nigericin: inhibits
RPE degeneration [5]
  Alu RNA-induced RPE degeneration / RPE cell death (fundus photographs, ZO-1 flat mounts): prevents Alu RNA-induced RPE cell death in a dose-dependent manner; also recorded: restored to healthy RPE morphology/intercellular junctions at highest dose of d4T
Human P2X7 receptor
  P2X7 cation channel function (patch clamp): did not significantly modulate P2X7 cation channel function
